Measured values: patent US8883720B2, “Template-fixed beta-hairpin peptidomimetics with CXCR4 antagonizing activity” (Polyphor AG, priority 2008, dated 2014)
Bridge positions count the residues as written; N and C are the ends. Square brackets hold non-standard residues; d marks the D form. Peptide text beside a SMILES is read from it. Abu(3S-NH2) = C[C@H](N)[C@H](N)C(=O)O; Lac = C[C@H](O)C(=O)O

How the values were obtained:
in vitro = assay type: cell-based
Description: The cytotoxicity of the depsipeptides to HELA cells (Acc57) and COS-7 cells (CRL-1651) was determined using the MTT reduction assay (T. Mossman, J. Immunol. Meth. 1983, 65, 55-63; M. V. Berridge, A. S. Tan, Arch. Biochem. Biophys. 1993, 303, 474-482). Briefly, the method was as follows: 7000 HELA cells/well and 4500 COS-7 cells/well were seeded and grown in 96-well microtiter plates for 24 h at 37° C. at 5% CO2. Thereafter, time zero (Tz) was determined by MTT reduction (see below). The supernatant of the remaining wells was discarded, and fresh medium and compounds in serial dilutions (12.5, 25 and 50 μM, triplicates) were pipetted into the wells. After incubation of the cells for 48 h at 37° C. at 5% CO2 the supernatant was discarded again and 100 μL MTT reagent (0.5 mg/mL in RPMI1640 and DMEM, respectively)/well was added. Following incubation at 37° C. for 2 h the media were aspirated and the cells were spiked (100 μL isopropanol/well). The absorbance of the solubilized formazan was measured at 595 nm (OD595peptide). For each concentration averages were calculated from triplicates. The percentage of growth was calculated as follows: (OD595peptide-OD595Tz-OD595Empty well)/(OD595Tz-OD595Empty well)×100%. The GI50 (Growth Inhibition) concentrations were calculated for each depsipeptide by using a trend line function for the concentrations (50, 25, 12.5 and 0 μM), the corresponding percentages and the value 50, (=TREND (C50:C0, %50:%0, 50).

[1] = Plasma stability, human plasma; assay type: in vitro ADME; details: 37° C., sampled up to 240 min, read-out: Plasmastability human pl. T1/2
Description: (§1) The stability of the depsipeptides in human and mouse plasma was determined by applying the following method: 315 μL/deep well of freshly thawed human plasma (Basler Blutspende-dienst) and mouse plasma (Harlan Sera-Lab, UK), respectively, were spiked with 35 μL/well of compound in PBS (100 μM, triplicate) and incubated at 37° C. At t=0, 15, 30, 60, 120 and 240 min aliquots of 50 μL were transferred to filtration plate wells containing 150 μL/well of acetonitrile. Following shaking for 2 min the occurred suspensions were filtrated by vacuum and finally, 100 μL of each filtrate were transferred to a propylene microtiter plate, and analyzed by LC/MS as follows: Column: Waters, XBridge C18, mobile phases: (A) water+0.1% formic acid and (B) acetonitrile/water, 95/5 (v/v)+0.1% formic acid, gradient: 5%-100% (B) in 2 minutes, electrospray ionization, MRM detection (triple quadrupole). The peak areas were determined and triplicate values are averaged. The stability is expressed in percent of the initial value at t=0. (tx/t0×100). By using the TREND function of EXCEL (Microsoft Office 2003) T1/2 were determined.

human CXCR4 = target: T1, human CXCR4 (Homo sapiens, UniProt P61073); assay: Ca2+-assay: CXCR4-antagonizing activity (SDF-1 induced calcium mobilization); assay type: cell-based; details: mouse pre-B cell line 300-19 stably transfected with human CXCR4, read-out: IC50% [nM] ± SD, CXCR4 receptor
T1 construct: expressed in transfected cells; host or cells: mouse pre-B cell line 300-19
T1 sequence (P61073 whole entry): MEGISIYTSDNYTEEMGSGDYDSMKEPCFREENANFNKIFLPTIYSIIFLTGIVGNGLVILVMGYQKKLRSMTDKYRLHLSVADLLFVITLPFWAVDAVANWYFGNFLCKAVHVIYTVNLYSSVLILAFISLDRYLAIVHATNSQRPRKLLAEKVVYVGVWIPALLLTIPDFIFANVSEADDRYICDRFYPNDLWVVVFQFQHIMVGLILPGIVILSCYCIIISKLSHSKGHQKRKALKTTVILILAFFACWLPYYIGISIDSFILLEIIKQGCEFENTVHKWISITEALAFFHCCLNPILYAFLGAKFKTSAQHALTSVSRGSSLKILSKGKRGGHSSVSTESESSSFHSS
Source text: 2.3. Ca^2+-Assay: CXCR4-Antagonizing Activity of the Depsipeptides
Increases in intracellular calcium were monitored using a Flexstation 384 (Molecular Devices, Sunnyvale, Calif.) to assay the depsipeptides for CXCR4 antagonism in a mouse pre-B cell line 300-19 stably transfected with human CXCR4 (E. Oberlin, A. Amara, F. Bachelerie, C. Bessia, J.-L. Virelizier, F. Arenzana-Seisdedos, O. Schwartz, J.-M. Heard, I. Clark-Lewis, D. F. Legler, M. Loetscher, M. Baggiolini, B. Moser, Nature 1996, 382, 833-835; M. Loetscher, T. Geiser, T. O'Reilly, R. Zwalen, M. Baggiolini, B. Moser, J. Biol. Chem. 1994, 269, 232-237; M. D'Apuuo, A. Rolink, M. Loetscher, J. A. Hoxie, I. Clark-Lewis, F. Melchors, M. Baggiolini, B. Moser, Eur. J. Immunol. 1997, 27, 1788-1793). The cells were batch loaded with the Calcium 4 Assay kit (Molecular Devices) in assay buffer (Hanks Balanced salt solution [HBSS], 20 mM HEPES, pH 7.4, 0.1% BSA) for 1 h at room temperature and labeled cells were dispensed into black well assays plates (Costar No. 3603). Calcium mobilization induced by stromal-derived factor-1 (SDF-1) was measured in the Flexstation 384 (excitation: 485 nm; emission: 525 nm) for 90 seconds. Antagonist activity of depsipeptides was determined by spiking the cells with compounds prior to SDF-1 addition. Dose response curves (compound concentration versus % maximum response for SDF-1) were determined for each antagonist and IC50 values were calculated by fitting the data to a four parameter logistic equation using SoftmaxPro 4.8 (Molecular Devices).

[2] = Plasma stability, mouse plasma; assay type: in vitro ADME; details: 37° C., sampled up to 240 min, read-out: Plasmastability mouse pl. T1/2
Description: as §1

[3] = test system: human red blood cells (hRBC); assay type: cell-based; details: red cells of human, 1 h
Description: 2.5. Hemolysis The depsipeptides were tested for their hemolytic activity against human red blood cells (hRBC). Fresh hRBC were washed three times with phosphate buffered saline (PBS) and centrifuged for 10 min at 2000×g. Compounds (100 μM) were incubated with 20% hRBC (v/v) for 1 h at 37° C. The final erythrocyte concentration was approximately 0.9×10^9 cells/mL. A value of 0% and 100% cell lyses, respectively, was determined by incubation of hRBC in the presence of PBS alone and 0.1% Triton X-100 in H2O, respectively. The samples were centrifuged, the supernatants were 20-fold diluted in PBS buffer and the optical densities (OD) were measured at 540 nm. The 100% lyses value (OD540H2O) gave an OD540 of approximately 1.3-1.8. Percent hemolysis was calculated as follows: (OD540peptide/OD540H2O)×100%.

SMILES	GI50 at 48 h (in vitro; African green monkey)	GI50 at 48 h (in vitro; human)	half-life at 10 μM [1]	IC50 (human CXCR4)	half-life at 10 μM [2]	Hemolysis at 100 μM [3]
C[C@@H]1NC(=O)[C@H](Cc2c[nH]cn2)NC(=O)[C@H](Cc2ccc(O)cc2)NC(=O)[C@@H]2CCCN2C(=O)[C@H]2CCCN2C(=O)[C@H](CCCCN)NC(=O)[C@H](CCC(N)=O)NC(=O)[C@H](Cc2ccc(O)cc2)NC(=O)[C@@H]2CSSC[C@H](NC1=O)C(=O)N[C@H](CO)C(=O)O[C@@H](C)C(=O)N1CCC[C@@H]1C(=O)N[C@@H]([C@H](C)N)C(=O)N[C@@H](CCCNC(=N)N)C(=O)N[C@@H](Cc1ccc(O)cc1)C(=O)N2 [Example 7] (cyclo(YHAC[dS][Lac][dP][Abu(3S-NH2)]RYCYQK[dP]P); disulfide 4-11)	> 50000 nM	> 50000 nM	1.03 h	2.1 ± 0.5 nM	0.85 h	0.2%
C[C@@H]1NC(=O)[C@H](Cc2c[nH]cn2)NC(=O)[C@H](Cc2ccc(O)cc2)NC(=O)[C@@H]2CCCN2C(=O)[C@H]2CCCN2C(=O)[C@H](CCCCN)NC(=O)[C@H](CCC(N)=O)NC(=O)[C@H](Cc2ccc(O)cc2)NC(=O)[C@@H]2CSSC[C@H](NC1=O)C(=O)N[C@@H](CO)C(=O)O[C@@H](C)C(=O)N1CCC[C@@H]1C(=O)N[C@@H]([C@H](C)N)C(=O)N[C@@H](CCCNC(=N)N)C(=O)N[C@@H](Cc1ccc(O)cc1)C(=O)N2 [Example 1] (cyclo(YHACS[Lac][dP][Abu(3S-NH2)]RYCYQK[dP]P); disulfide 4-11)	12000 nM	2000 nM	1.32 h	0.8 ± 0.5 nM	1.22 h	0.2%
